Reference: a melting point compilation (Tetko et al.; mined from patent text by program, amines drawn as free bases though some values may be those of a salt)

A melting point of 276 °C was found for `O=C1N(c2cc(Cl)cc(Cl)c2)C(=O)C2(Cc3ccc(-c4cccnc4)cc3)CCCCN12` (stereo not drawn) in this work.
A melting point of 132 to 134 °C was found for `CC(C)(C)OC(=O)N1C[C@@H](CC(=O)C(=[N+]=[N-])C(=O)OCc2ccc([N+](=O)[O-])cc2)[C@H]2NC(=O)[C@H]21` in this work.
A melting point of 184 to 186 °C was found for `CCn1cc(C(=O)O)c(=O)c2cc(F)c(N3CCN(C)C(COC(C)C)C3)cc21` (stereo not drawn) in this work.
A melting point of 204 to 205 °C was found for `CC(C)CN1C(=O)C(C)(C)C(=O)Nc2cc(C#N)ccc21` in this work.
A melting point of 88 to 91 °C was found for `CCCn1cc(CO)c(=O)c2ccccc21` in this work.
A melting point of 169 to 170 °C was found for `CCOC(=O)CCCc1ccc(Nc2ncc3cc(-c4c(Cl)cccc4Cl)c(=O)n(C)c3n2)cc1` in this work.
A melting point of 75 to 78 °C was found for `CCCCc1oc2ccccc2c1C(=O)NCc1ccc2c(-c3ccc(C(C)(C)C)cc3)c(OCc3nnn[nH]3)ccc2c1` in this work.
A melting point of 193 to 196 °C was found for `Nc1nc(F)cc(F)n1` in this work.
A melting point of 146 to 147 °C was found for `CC1(C)Oc2cc(Br)sc2[C@@H](N2CCCCC2=O)[C@@H]1OCc1ccccc1` (relative stereo) in this work.
A melting point of 140 to 142 °C was found for `COc1ccc(C#Cc2ccc(OC)cc2)cc1` in this work.
A melting point of 119 to 123 °C was found for `COC(=O)c1cccc([N+](=O)[O-])c1CS(N)(=O)=O` in this work.
A melting point of 195 to 197 °C was found for `N#Cc1cnc2cc(Br)ccc2c1Nc1ccc(Cc2ccccc2)cc1` in this work.
A melting point of 110 to 113 °C was found for `O=C1CCc2cc(Cl)c([N+](=O)[O-])cc21` in this work.
A melting point of 68 to 69 °C was found for `c1ccc(COc2ccc(CCCCn3cncn3)cc2)cc1` in this work.
A melting point of 260 to 261 °C was found for `O=C(c1ccccc1)n1c2ccccc2c2cc(O)c(O)cc21` in this work.
A melting point of 116 to 118 °C was found for `ClCc1cccc2c(-c3ccc(Br)cc3)nccc12` in this work.
A melting point of 134 °C was found for `N#CC(C(=O)c1ccc(-c2ccc(Cl)cc2)cc1)=C1CCCCN1` in this work.
A melting point of 107 to 109 °C was found for `CC(C)[C@H](CCC(=O)O)NC(=O)OC(C)(C)C` in this work.
A melting point greater than 360 °C was found for `O=S(=O)(O)c1ccc2nc(NC3=NCCN3)[nH]c2c1` in this work.
A melting point of 115 °C was found for `CCN(CCO)C(=O)c1ccc(C(=O)N2CCN(c3ncccc3NC(C)C)CC2)cc1` in this work.
A melting point of 142 to 144 °C was found for `COc1ccc(C2=NN(CC(=O)c3ccc(Cl)cc3)C(=O)[C@H]3CCCC[C@@H]23)cc1OC` (relative stereo) in this work.
A melting point of 52 to 54 °C was found for `CCCCN(O)C1CC(C)(C)N(C(C)=O)C(C)(C)C1` in this work.
A melting point of 63 to 64 °C was found for `OCC1(c2ccccc2)CCCCC1` in this work.
A melting point of 206 °C was found for `COc1ccc(C2=C(c3ccc(C=CC(=O)O)cc3)c3ccc(OC)cc3CC2)cc1` in this work.
A melting point of 97 to 99 °C was found for `CC(C)Nc1nc2cc(F)c(Cl)cc2n1[C@@H]1O[C@H](C)[C@@H](O)[C@H]1O` in this work.
A melting point of 148 to 150 °C was found for `Cc1cc(-n2cnn(CCC3CC3)c2=O)sc1C(=O)NCc1cccnc1` in this work.
A melting point of 175 to 176 °C was found for `Nc1ccc(N2CCN(Cc3ccccc3)CC2)nc1CS(=O)(=O)c1ccccc1` in this work.
A melting point of 208 to 210 °C was found for `CN1C(=O)C(C)(C)C(=O)Nc2cc(C=O)ccc21` in this work.
A melting point of 49 °C was found for `COC(=O)CCCC#Cc1nc(C(F)(F)F)ccc1N` in this work.
A melting point of 202 °C was found for `N#Cc1c(N)nc2ccc(N3CCN(Cc4ccccc4)CC3)cc2c1NCc1ccccc1` in this work.
A melting point of 129 to 135 °C was found for `Cc1cccc(Nc2ncnc3ccc(OCCBr)cc23)c1` in this work.
A melting point of 238 to 239 °C was found for `COc1cc(OC)c2sc(-c3ccc([N+](=O)[O-])cc3)nc2c1` in this work.
A melting point of 201 to 203 °C was found for `COC(=O)c1ccc(OCCCN(C(=O)c2ccc(C(C)(C)C)cc2)c2ccc(Cl)cc2)cc1` in this work.
A melting point of 100 to 103 °C was found for `CCCc1nc2c(N)nc3cc(CCc4cccnc4)ccc3c2n1NC(C)C` in this work.
A melting point of 166 to 168 °C was found for `Cc1cc(-n2cnnn2)ccc1[N+](=O)[O-]` in this work.
A melting point of 181 °C was found for `CCN(CC)C(=O)CCCC1CCN(Cc2cnc3cc(NC(=O)c4ccc(-c5ccc(F)cc5)cc4)c(C)cc3c2)CC1` in this work.
A melting point of 137 to 139 °C was found for `FC(F)(F)c1cccc(-c2cc(Cl)n3nccc3n2)c1` in this work.
A melting point of 91 to 92 °C was found for `Cc1cccc(-c2ccc3c(c2)c(CC(=O)O)cn3Cc2ccc(C(C)(C)C)cc2)c1` in this work.
